From ChEMBL document CHEMBL1255549 (Bioorg Med Chem Lett, 2010) come the findings set out here.

Structures are written as SMILES. pKi: −log10 of the molar value.

The target of the experiment is Maltase-glucoamylase (Homo sapiens, UniProt O43451). The experiment in a line: Inhibition of human recombinant N-terminal domain of maltase-glucoamylase after 60 mins by glucose oxidase assay.
Maltase-glucoamylase, sequence (O43451 whole entry, the tested form may be a part): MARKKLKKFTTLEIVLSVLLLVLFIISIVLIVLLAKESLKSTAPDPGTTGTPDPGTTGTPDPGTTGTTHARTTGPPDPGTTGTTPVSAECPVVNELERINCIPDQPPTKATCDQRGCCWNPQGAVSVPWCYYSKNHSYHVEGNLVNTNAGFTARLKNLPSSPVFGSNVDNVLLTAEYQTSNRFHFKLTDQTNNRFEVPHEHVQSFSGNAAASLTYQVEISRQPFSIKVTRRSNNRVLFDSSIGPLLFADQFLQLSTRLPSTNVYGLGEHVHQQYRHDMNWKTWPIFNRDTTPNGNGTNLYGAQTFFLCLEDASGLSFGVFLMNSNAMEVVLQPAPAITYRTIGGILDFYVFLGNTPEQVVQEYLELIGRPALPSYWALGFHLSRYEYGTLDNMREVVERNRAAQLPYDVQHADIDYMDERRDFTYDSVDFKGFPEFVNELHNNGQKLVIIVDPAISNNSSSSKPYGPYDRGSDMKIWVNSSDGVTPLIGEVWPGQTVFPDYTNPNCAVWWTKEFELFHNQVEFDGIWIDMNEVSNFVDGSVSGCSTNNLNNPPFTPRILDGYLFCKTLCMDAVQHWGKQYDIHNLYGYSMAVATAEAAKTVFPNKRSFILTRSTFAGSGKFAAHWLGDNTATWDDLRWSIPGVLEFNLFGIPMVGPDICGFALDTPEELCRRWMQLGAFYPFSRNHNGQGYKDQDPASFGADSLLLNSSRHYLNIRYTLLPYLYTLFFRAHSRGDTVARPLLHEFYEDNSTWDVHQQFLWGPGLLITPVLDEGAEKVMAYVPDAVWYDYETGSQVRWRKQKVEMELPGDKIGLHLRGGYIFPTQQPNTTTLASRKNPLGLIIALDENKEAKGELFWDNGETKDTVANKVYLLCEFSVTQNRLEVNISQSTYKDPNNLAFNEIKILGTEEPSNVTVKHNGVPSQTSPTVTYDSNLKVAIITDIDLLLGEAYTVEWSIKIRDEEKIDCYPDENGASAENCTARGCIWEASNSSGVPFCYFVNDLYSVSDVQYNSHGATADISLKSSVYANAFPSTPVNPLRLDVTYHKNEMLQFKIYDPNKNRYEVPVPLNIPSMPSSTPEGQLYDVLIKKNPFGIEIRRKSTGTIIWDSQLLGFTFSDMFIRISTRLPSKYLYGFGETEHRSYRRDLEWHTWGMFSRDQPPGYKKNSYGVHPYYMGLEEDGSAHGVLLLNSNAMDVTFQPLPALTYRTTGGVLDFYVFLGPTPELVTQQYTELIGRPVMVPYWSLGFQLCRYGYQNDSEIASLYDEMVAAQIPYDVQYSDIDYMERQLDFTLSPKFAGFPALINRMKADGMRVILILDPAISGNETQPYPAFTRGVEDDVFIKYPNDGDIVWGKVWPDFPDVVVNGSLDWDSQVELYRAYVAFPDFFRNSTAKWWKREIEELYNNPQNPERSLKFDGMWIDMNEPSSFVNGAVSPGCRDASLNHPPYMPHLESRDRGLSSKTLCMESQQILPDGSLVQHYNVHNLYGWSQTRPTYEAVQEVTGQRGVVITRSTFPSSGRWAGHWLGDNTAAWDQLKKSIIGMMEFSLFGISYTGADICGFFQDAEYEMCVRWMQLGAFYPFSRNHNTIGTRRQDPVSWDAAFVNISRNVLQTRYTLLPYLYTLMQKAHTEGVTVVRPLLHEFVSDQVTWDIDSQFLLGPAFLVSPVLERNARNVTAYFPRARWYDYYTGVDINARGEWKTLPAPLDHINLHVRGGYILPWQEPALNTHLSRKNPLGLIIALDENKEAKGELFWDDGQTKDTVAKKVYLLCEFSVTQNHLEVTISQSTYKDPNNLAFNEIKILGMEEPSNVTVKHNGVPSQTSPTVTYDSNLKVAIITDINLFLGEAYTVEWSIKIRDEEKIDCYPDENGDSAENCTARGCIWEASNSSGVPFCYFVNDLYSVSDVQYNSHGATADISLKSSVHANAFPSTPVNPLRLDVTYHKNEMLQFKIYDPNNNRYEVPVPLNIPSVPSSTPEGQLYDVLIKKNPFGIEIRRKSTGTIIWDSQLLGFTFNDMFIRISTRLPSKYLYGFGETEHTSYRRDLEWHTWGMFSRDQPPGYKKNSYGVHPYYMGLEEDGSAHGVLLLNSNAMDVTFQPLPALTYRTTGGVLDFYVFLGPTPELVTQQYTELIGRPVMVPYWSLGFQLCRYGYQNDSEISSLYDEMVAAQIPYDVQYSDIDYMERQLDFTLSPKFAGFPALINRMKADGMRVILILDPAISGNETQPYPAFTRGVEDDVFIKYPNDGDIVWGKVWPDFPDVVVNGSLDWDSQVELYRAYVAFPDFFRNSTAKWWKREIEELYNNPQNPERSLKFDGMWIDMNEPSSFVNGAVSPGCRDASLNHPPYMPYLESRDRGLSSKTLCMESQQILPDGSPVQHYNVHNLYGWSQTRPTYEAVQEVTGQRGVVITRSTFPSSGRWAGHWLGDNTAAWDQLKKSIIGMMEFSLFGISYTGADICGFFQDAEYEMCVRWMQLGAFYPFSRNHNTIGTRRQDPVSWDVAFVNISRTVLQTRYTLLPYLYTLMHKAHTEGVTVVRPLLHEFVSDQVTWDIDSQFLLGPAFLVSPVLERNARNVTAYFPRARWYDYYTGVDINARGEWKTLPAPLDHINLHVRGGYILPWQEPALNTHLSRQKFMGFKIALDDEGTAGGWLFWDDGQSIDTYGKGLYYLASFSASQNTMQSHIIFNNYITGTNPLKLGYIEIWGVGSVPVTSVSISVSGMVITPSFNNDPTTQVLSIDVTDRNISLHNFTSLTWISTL

Consider `CO[C@@H]([C@H](O)[C@@H](O)CO)[C@H](O)C[S@+]1C[C@@H](O)[C@H](O)[C@H]1CO`, for which the pKi is 6.30.

As usually defined, the pKi is the negative decadic logarithm of the Ki, by convention in mol/L.
